According to article PMC9814781, “Structure-based design of a dual-warhead covalent inhibitor of FGFR4” (Communications Chemistry, 2022):
Where two headings read alike, the source gives them in different places.

Experiments:
EPHA8 = EPHA8 (Homo sapiens, UniProt P29322); experiment: Kinase selectivity profiling
EPHB3 = EPHB3 (Homo sapiens, UniProt P54753); experiment: Kinase selectivity profiling
CSK = CSK (Homo sapiens, UniProt P41240); experiment: Kinase selectivity profiling
Pkca = Pkca (Homo sapiens, UniProt P17252); experiment: Kinase selectivity profiling
GSK3β = GSK3β (Homo sapiens, UniProt P49841); experiment: Kinase selectivity profiling
CK2α2/β = CK2α2/β (Homo sapiens, UniProt P19784); experiment: Kinase selectivity profiling
[1] = In vitro plasma stability study; assay type: in vitro ADME; settings: for half-life at 2 µg/mL: 37°C, read-out: in vitro t1/2 (converted); for R squared / Slope: linear regression 0–10 h
Procedure: The incubation was terminated by the addition of 300 µL of acetonitrile containing 50 ng/mL roblitinib as internal standard. After vortex and centrifugation, the supernatant was analyzed using ultraperformance liquid chromatography-tandem mass spectrometry.

TAOK2 = TAOK2 (Homo sapiens, UniProt Q9UL54); experiment: Kinase selectivity profiling
FLT1 (VEGFR1) = FLT1 (VEGFR1) (Homo sapiens, UniProt P17948); experiment: Kinase selectivity profiling
ABL1 = ABL1 (Homo sapiens, UniProt P00519); experiment: Kinase selectivity profiling
PIM3 = PIM3 (Homo sapiens, UniProt Q86V86); experiment: Kinase selectivity profiling
PKD2 = PKD2 (Homo sapiens, UniProt Q9BZL6); experiment: Kinase selectivity profiling
HGK = HGK (Homo sapiens, UniProt O95819); experiment: Kinase selectivity profiling
KIT = KIT (Homo sapiens, UniProt P10721); experiment: Kinase selectivity profiling
FAK = FAK (Homo sapiens, UniProt Q05397); experiment: Kinase selectivity profiling
AKT3 = AKT3 (Homo sapiens, UniProt Q9Y243); experiment: Kinase selectivity profiling
AMPKα1/β1/γ1 = AMPKα1/β1/γ1 (Homo sapiens, UniProt Q13131); experiment: Kinase selectivity profiling
TAOK1 = TAOK1 (Homo sapiens, UniProt Q7L7X3); experiment: Kinase selectivity profiling
HER2 = HER2 (Homo sapiens, UniProt P04626); experiment: Kinase selectivity profiling
IKK-beta = IKK-beta (Homo sapiens, UniProt O14920); experiment: Kinase selectivity profiling
PIK3CA/PIK3R1 = PIK3CA/PIK3R1 (Homo sapiens, UniProt P42336); experiment: Kinase selectivity profiling
TYK2 = TYK2 (Homo sapiens, UniProt P29597); experiment: Kinase selectivity profiling
IKKε(IKBKE) = IKKε(IKBKE) (Homo sapiens, UniProt Q14164); experiment: Kinase selectivity profiling
PAK4 = PAK4 (Homo sapiens, UniProt O96013); experiment: Kinase selectivity profiling
MUSK = MUSK (Homo sapiens, UniProt O15146); experiment: Kinase selectivity profiling
RSK1 = RSK1 (Homo sapiens, UniProt Q15418); experiment: Kinase selectivity profiling
CK2α1/β = CK2α1/β (Homo sapiens, UniProt P68400); experiment: Kinase selectivity profiling
ZAP70 = ZAP70 (Homo sapiens, UniProt P43403); experiment: Kinase selectivity profiling
MST2 = MST2 (Homo sapiens, UniProt Q13188); experiment: Kinase selectivity profiling
CK1γ2 = CK1γ2 (Homo sapiens, UniProt P78368); experiment: Kinase selectivity profiling
ROCK2 = ROCK2 (Homo sapiens, UniProt O75116); experiment: Kinase selectivity profiling
SGK2 = SGK2 (Homo sapiens, UniProt Q9HBY8); experiment: Kinase selectivity profiling

Chain of PIK3CA/PIK3R1 (P42336 whole entry): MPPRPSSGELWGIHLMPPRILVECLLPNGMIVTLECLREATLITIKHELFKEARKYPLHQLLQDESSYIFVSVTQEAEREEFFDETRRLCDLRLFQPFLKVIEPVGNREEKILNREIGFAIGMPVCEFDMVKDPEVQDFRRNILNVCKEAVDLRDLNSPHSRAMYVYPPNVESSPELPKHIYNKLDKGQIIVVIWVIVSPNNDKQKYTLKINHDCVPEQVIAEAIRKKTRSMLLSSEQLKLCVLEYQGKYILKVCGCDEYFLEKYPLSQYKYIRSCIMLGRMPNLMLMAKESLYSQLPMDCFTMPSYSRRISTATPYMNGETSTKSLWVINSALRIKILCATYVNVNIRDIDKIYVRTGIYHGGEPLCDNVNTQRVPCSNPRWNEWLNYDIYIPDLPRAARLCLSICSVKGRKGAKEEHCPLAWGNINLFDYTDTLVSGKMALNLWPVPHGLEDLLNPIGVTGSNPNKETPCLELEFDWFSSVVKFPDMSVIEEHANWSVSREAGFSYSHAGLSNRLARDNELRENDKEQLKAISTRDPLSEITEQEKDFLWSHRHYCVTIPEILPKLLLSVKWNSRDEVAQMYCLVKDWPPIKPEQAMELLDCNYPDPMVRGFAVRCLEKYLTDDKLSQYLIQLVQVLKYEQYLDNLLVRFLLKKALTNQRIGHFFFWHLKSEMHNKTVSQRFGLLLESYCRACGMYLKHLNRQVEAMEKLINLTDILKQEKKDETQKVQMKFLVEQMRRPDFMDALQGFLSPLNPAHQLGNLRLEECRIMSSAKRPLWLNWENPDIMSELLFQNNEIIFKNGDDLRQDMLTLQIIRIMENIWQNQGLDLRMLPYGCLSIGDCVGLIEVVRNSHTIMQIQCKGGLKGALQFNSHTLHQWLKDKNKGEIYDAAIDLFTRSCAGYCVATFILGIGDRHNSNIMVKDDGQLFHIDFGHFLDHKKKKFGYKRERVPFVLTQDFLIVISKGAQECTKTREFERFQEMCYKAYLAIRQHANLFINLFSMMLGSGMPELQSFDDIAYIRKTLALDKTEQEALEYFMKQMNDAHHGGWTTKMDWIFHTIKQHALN
Chain of PIK3CA/PIK3R1 (P27986 whole entry partner): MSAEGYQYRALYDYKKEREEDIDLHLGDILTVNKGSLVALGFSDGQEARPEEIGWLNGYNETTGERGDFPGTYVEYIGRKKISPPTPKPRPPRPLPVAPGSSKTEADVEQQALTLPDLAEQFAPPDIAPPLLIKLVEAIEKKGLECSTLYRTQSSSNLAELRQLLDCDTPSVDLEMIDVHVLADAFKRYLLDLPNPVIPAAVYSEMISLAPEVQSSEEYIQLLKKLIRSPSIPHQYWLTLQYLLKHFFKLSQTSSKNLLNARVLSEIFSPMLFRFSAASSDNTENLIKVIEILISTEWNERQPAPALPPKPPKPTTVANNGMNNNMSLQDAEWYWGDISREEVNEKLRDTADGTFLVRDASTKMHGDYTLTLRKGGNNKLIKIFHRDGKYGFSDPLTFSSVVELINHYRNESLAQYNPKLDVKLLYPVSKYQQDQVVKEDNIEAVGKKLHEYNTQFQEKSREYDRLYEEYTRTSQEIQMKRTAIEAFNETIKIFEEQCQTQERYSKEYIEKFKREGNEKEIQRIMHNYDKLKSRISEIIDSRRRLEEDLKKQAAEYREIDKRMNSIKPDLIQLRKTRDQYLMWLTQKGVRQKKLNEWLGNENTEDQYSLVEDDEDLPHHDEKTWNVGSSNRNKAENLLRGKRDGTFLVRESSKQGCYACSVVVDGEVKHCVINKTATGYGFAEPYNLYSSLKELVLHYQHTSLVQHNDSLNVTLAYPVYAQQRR
Chain of CK2α2/β (P19784 whole entry): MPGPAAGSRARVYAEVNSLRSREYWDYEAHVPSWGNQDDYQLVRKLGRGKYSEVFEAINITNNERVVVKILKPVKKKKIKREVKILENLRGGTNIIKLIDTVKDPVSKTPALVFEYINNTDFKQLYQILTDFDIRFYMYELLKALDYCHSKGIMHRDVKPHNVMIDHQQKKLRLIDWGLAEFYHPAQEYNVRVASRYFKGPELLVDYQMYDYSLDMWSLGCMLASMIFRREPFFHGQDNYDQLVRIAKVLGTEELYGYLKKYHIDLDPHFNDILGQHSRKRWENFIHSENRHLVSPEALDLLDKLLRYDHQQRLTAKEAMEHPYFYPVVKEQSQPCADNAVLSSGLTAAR
Chain of CK2α2/β (P67870 whole entry partner): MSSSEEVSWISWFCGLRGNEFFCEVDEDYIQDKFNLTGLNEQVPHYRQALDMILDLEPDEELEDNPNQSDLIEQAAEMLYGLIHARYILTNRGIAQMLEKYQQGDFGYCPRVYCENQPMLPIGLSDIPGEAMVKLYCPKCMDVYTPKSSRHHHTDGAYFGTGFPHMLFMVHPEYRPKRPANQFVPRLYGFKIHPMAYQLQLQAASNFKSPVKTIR
Chain of IKK-beta (O14920 whole entry): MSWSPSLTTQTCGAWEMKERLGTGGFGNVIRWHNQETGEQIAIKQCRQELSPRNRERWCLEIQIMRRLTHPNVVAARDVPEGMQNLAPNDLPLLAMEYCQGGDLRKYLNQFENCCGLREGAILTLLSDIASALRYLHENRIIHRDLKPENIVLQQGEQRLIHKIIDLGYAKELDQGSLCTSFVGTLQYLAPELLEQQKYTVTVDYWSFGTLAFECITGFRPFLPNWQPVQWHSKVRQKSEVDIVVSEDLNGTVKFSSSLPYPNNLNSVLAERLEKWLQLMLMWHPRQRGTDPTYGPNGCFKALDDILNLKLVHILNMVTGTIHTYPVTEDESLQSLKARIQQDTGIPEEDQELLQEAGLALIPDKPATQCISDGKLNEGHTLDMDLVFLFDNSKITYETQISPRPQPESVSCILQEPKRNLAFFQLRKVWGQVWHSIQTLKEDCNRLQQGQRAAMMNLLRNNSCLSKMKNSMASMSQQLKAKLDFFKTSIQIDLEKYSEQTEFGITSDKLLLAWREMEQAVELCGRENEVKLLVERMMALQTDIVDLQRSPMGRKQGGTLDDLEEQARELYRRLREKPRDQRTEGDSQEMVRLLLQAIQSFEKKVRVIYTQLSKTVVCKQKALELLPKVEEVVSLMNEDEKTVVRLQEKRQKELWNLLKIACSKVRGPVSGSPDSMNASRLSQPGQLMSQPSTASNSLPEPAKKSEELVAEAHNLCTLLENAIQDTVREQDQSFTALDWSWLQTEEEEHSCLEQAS
Chain of RSK1 (Q15418 whole entry): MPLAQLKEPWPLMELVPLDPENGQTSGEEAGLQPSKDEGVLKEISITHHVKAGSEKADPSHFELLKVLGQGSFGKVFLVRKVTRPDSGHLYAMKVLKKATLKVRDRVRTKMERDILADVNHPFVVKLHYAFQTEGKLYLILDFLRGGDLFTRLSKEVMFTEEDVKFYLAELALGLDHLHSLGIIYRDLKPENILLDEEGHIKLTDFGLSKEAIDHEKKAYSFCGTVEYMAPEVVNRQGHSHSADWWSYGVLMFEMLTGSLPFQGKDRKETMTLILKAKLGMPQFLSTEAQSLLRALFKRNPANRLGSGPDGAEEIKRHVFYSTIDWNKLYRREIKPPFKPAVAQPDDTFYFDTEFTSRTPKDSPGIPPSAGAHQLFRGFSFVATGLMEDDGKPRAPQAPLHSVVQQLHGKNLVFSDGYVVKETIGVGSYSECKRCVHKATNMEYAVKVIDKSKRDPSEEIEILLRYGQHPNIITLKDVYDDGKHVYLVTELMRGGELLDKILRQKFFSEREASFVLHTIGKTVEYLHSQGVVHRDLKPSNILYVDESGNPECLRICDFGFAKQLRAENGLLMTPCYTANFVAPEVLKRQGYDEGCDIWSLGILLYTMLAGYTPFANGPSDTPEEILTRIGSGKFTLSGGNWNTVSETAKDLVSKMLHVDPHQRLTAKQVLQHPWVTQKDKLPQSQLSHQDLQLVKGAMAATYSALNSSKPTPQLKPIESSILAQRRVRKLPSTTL

In the case of `C=CC(=O)Nc1ccccc1Nc1ncc2c(n1)N(CCCN1CCN(C(=O)C=C)CC1)C(=O)N(c1cc(OC)cc(OC)c1)C2` [CXF-009], the inhibition at 1 µM (EPHA8) is reported as -0.52%, the inhibition at 1 µM (EPHB3) is reported as -0.82% and the inhibition at 1 µM (CSK) is reported as 3.29%. For the same compound, the inhibition at 1 µM (Pkca) was 1.73%, the inhibition at 1 µM (GSK3β) was -0.37% and the inhibition at 1 µM (CK2α2/β) was -7.98%. The half-life at 2 µg/mL ([1]; human plasma) was 3.73 h, the R squared ([1]; human plasma) was 0.9969 and the Slope ([1]; human plasma) was −0.1859. The half-life at 2 µg/mL ([1]; rat plasma) was 4.99 h, the R squared ([1]; rat plasma) was 0.9935 and the Slope ([1]; rat plasma) was −0.1388. For the same compound, the inhibition at 1 µM (TAOK2) was -3.76%, the inhibition at 1 µM (FLT1 (VEGFR1)) was 5.91% and the inhibition at 1 µM (ABL1) was -1.44%. It also gave an inhibition at 1 µM (PIM3) of 17.5%, an inhibition at 1 µM (PKD2) of 0.08% and an inhibition at 1 µM (HGK) of 2.58%. For the same compound, the inhibition at 1 µM (KIT) was -14.3%, the inhibition at 1 µM (FAK) was -0.41% and the inhibition at 1 µM (AKT3) was -0.52%. It also gave an inhibition at 1 µM (AMPKα1/β1/γ1) of 2.23%, an inhibition at 1 µM (TAOK1) of -0.59% and an inhibition at 1 µM (HER2) of 10.7%. The inhibition at 1 µM (IKK-beta) was 19%, the inhibition at 1 µM (PIK3CA/PIK3R1) was -35% and the inhibition at 1 µM (TYK2) was -5.05%. It also gave an inhibition at 1 µM (IKKε(IKBKE)) of 7.21%, an inhibition at 1 µM (PAK4) of 6.5% and an inhibition at 1 µM (MUSK) of -3.46%. The inhibition at 1 µM (RSK1) was -2.52%, the inhibition at 1 µM (CK2α1/β) was -3.22% and the inhibition at 1 µM (ZAP70) was 11.8%. It also gave an inhibition at 1 µM (MST2) of -8.12%, an inhibition at 1 µM (CK1γ2) of -4.8% and an inhibition at 1 µM (ROCK2) of -2.53%. The inhibition at 1 µM (SGK2) was 0.51%.
